Laboratory results: article PMC8587938 (2021)

How the values were obtained:
[1] = tested on: a2 (DNA, G4) GGGGTGTGGGGACAGGGGTGTGGGG; test: fluorimetric titration (ligand fluorescence quenching); details: K+ 25 mM; K-phosphate buffer, pH 7.0, 20 °C; 20 μM ligand
[2] = tested on: a2^12AP (DNA, G4, 2-aminopurine at 12 (replaces A)) GGGGTGTGGGGACAGGGGTGTGGGG; test: 2-aminopurine fluorescence quenching titration; details: K+ 25 mM; K-phosphate buffer, pH 7.0, 20 °C; 30 µM DNA; significant quenching only above ligand–DNA ratio 1
[3] = tested on: a2^14AP (DNA, G4, 2-aminopurine at 14 (replaces A)) GGGGTGTGGGGACAGGGGTGTGGGG; test: 2-aminopurine fluorescence quenching titration; details: K+ 25 mM; K-phosphate buffer, pH 7.0, 20 °C; 30 µM DNA; significant quenching only above ligand–DNA ratio 1
[4] = tested on: a2 (DNA, G4) GGGGTGTGGGGACAGGGGTGTGGGG; test: 1H NMR / NOESY titration; details: K+ 25 mM; K-phosphate buffer, pH 7.0, 25 °C, 2.0 mM a2; terminal stacking on G1-G11-G15-G25 quartet

## Cc1cc2c3c([n+](C)c4ccc(F)cc4c3c1)-c1cc(F)ccc1N2C
[1]
  Kb: 1.4 ± 0.2 × 10^6 M^-1
[2]
  binding: yes
[3]
  binding: yes
[4]
  binding: yes
